Assay results as given in ChEMBL document CHEMBL3860056, “In vitro and in vivo inhibitory activity of 6-amino-2,4,5-trimethylpyridin-3-ols against inflammatory bowel disease” (Bioorg Med Chem Lett, 2016).

What was measured:
[1] = (§1) Antiinflammatory activity in human HT-29 cells assessed as inhibition of TNF-alpha induced BCECF-AM labeled human U937 cell adhesion at 1 uM preincubated for 1 hr followed by stimulation with TNF-alpha for 3 hrs followed by further co-incubation with BCECF-AM labeled human U937 cells for 1 hr by fluorescent/light microscopic analysis; assay type: functional
[2] = as §1, with “adhesion” for “adhesion at 1 uM”; assay type: functional, cell-based
[3] = tested on: Rattus norvegicus; test: Antiinflammatory activity in TNBS-induced Sprague-Dawley rat colitis model assessed as body weight recovery at 0.1 mg/kg/day, po administered for 5 days post 1 day of TNBS-challenge measured daily during compound dosing relative to control; assay type: functional
[4] = tested on: Rattus norvegicus; test: Antiinflammatory activity in TNBS-induced Sprague-Dawley rat colitis model assessed as body weight recovery at 1 mg/kg/day, po administered for 5 days post 1 day of TNBS-challenge measured daily during compound dosing relative to control; assay type: functional
[5] = tested on: Rattus norvegicus; test: Antiinflammatory activity in TNBS-induced Sprague-Dawley rat colitis model assessed as body weight recovery at 10 mg/kg/day, po administered for 5 days post 1 day of TNBS-challenge measured daily during compound dosing relative to control; assay type: functional
[6] = tested on: Rattus norvegicus; test: Antiinflammatory activity in po dosed TNBS-induced Sprague-Dawley rat colitis model assessed as body weight recovery compound administered for 5 days post 1 day of TNBS-challenge measured daily during compound dosing; assay type: functional, organism-based
[7] = tested on: Rattus norvegicus; test: Antiinflammatory activity in TNBS-induced Sprague-Dawley rat colitis model assessed as colon weight recovery at 0.1 mg/kg/day, po administered for 5 days post 1 day of TNBS-challenge relative to control; assay type: functional
[8] = tested on: Rattus norvegicus; test: Antiinflammatory activity in TNBS-induced Sprague-Dawley rat colitis model assessed as colon weight recovery at 1 mg/kg/day, po administered for 5 days post 1 day of TNBS-challenge relative to control; assay type: functional
[9] = tested on: Rattus norvegicus; test: Antiinflammatory activity in TNBS-induced Sprague-Dawley rat colitis model assessed as colon weight recovery at 10 mg/kg/day, po administered for 5 days post 1 day of TNBS-challenge relative to control; assay type: functional
[10] = tested on: Rattus norvegicus; test: Antiinflammatory activity in po dosed TNBS-induced Sprague-Dawley rat colitis model assessed as reduction in colon edema and adhesion administered for 5 days post 1 day of TNBS-challenge by microscopic analysis; assay type: functional, organism-based
[11] = tested on: Rattus norvegicus; test: Antiinflammatory activity in po dosed TNBS-induced Sprague-Dawley rat colitis model assessed as recovery of increase in colon wet weight administered for 5 days post 1 day of TNBS-challenge; assay type: functional, organism-based
[12] = tested on: Rattus norvegicus; test: Antiinflammatory activity in TNBS-induced Sprague-Dawley rat colitis model assessed as inhibition of myeloperoxidase level in colon at 0.1 mg/kg/day, po administered for 5 days post 1 day of TNBS-challenge by colorimetric method relative to control; assay type: functional
[13] = tested on: Rattus norvegicus; test: Antiinflammatory activity in TNBS-induced Sprague-Dawley rat colitis model assessed as inhibition of myeloperoxidase level in colon at 1 mg/kg/day, po administered for 5 days post 1 day of TNBS-challenge by colorimetric method relative to control; assay type: functional
[14] = tested on: Rattus norvegicus; test: Antiinflammatory activity in TNBS-induced Sprague-Dawley rat colitis model assessed as inhibition of myeloperoxidase level in colon at 10 mg/kg/day, po administered for 5 days post 1 day of TNBS-challenge by colorimetric method relative to control; assay type: functional
[15] = species: Rattus norvegicus; test: Potency index, ratio of compound efficacy to sulfasalazine efficacy in TNBS-induced Sprague-Dawley rat colitis model assessed as body weight recovery; assay type: functional
[16] = species: Rattus norvegicus; test: Potency index, ratio of compound efficacy to sulfasalazine efficacy in TNBS-induced Sprague-Dawley rat colitis model assessed as colon weight recovery; assay type: functional
[17] = species: Rattus norvegicus; test: Potency index, ratio of compound efficacy to sulfasalazine efficacy in TNBS-induced Sprague-Dawley rat colitis model assessed as inhibition of MPO level in colon; assay type: functional
[18] = tested on: Rattus norvegicus; test: Antiinflammatory activity in TNBS-induced Sprague-Dawley rat colitis model assessed as body weight recovery at 300 mg/kg/day, po administered for 5 days post 1 day of TNBS-challenge measured daily during compound dosing relative to control; assay type: functional
[19] = tested on: Rattus norvegicus; test: Antiinflammatory activity in TNBS-induced Sprague-Dawley rat colitis model assessed as colon weight recovery at 300 mg/kg/day, po administered for 5 days post 1 day of TNBS-challenge relative to control; assay type: functional
[20] = tested on: Rattus norvegicus; test: Antiinflammatory activity in TNBS-induced Sprague-Dawley rat colitis model assessed as inhibition of myeloperoxidase level in colon at 300 mg/kg/day, po administered for 5 days post 1 day of TNBS-challenge by colorimetric method relative to control; assay type: functional
[21] = as §1, with “20 mM” for “1 uM”; assay type: functional

Row | SMILES | inhibition at 1 µM [1] | further results
1 | COc1ccc(Nc2nc(C)c(O)c(C)c2C)cc1 | 14% | 
2 | Cc1nc(Nc2cccc([N+](=O)[O-])c2)c(C)c(C)c1O | 18.5% | 
3 | Cc1nc(Nc2ccc([N+](=O)[O-])cc2)c(C)c(C)c1O | 39% | 
4 | Cc1nc(Nc2cccc3ccccc23)c(C)c(C)c1O | 52.4% | 
5 | Cc1nc(N(C)c2ccc(F)cc2)c(C)c(C)c1O | 77.2% | 
6 | Cc1cccc(N(C)c2nc(C)c(O)c(C)c2C)c1 | 63.2% | 
7 | CCCCCCCCCCc1ccc(Nc2nc(C)c(O)c(C)c2C)cc1 | 76.6% | 
8 | Cc1nc(N)c(C)c(C)c1O | 22.9% | 
9 | Cc1nc(Nc2ccc3c(c2)OCO3)c(C)c(C)c1O | 26.5% | 
10 | Cc1ccc(N(C)c2nc(C)c(O)c(C)c2C)cc1 | 67.4% | 
11 | Cc1nc(N2CCCCC2)c(C)c(C)c1O | 47.9% | 
12 | Cc1nc(NCc2ccc(C(C)(C)C)cc2)c(C)c(C)c1O | 49.2% | 
13 | Cc1ccc(Nc2nc(C)c(O)c(C)c2C)cc1 | 84.4% | 
14 | Cc1cccc(Nc2nc(C)c(O)c(C)c2C)c1 | 74% | 
15 | Cc1nc(Nc2cccc(Br)c2)c(C)c(C)c1O | 20.5% | 
16 | Cc1nc(N2CCCC2)c(C)c(C)c1O | 36.7% | 
17 | Cc1nc(N2CCN(C)CC2)c(C)c(C)c1O | 47.6% | 
18 | Cc1nc(N2CCC(C(O)(c3ccccc3)c3ccccc3)CC2)c(C)c(C)c1O | -7% | 
19 | Cc1nc(Nc2ccc(Br)cc2)c(C)c(C)c1O | 47.2% | 
20 | Cc1nc(Nc2ccccc2C(C)C)c(C)c(C)c1O | 37.8% | 
21 | Cc1nc(NC2CCCCC2)c(C)c(C)c1O | 36% | 
22 | Cc1nc(NCCCO)c(C)c(C)c1O | 19% | 
23 | CCCCCCCCCCCCCCCCNc1nc(C)c(O)c(C)c1C | 26.9% | 

Row | SMILES | inhibition at 1 µM [1] | further results
24 | Cc1nc(Nc2ccccc2)c(C)c(C)c1O | 73.6% | 
25 | Cc1nc(Nc2ccc(F)cc2)c(C)c(C)c1O | 71.5% | 
26 | Nc1cccc2c1CN(C1CCC(=O)NC1=O)C2=O (stereo not given) [LENALIDOMIDE] | 64.6% | 
27 | Cc1nc(Nc2cccc(Cl)c2)c(C)c(C)c1O | 42.5% | 
28 | CCCc1ccc(Nc2nc(C)c(O)c(C)c2C)cc1 | 77.9% | IC50 [2]: 0.00019 mM; Activity [3]: 47.2%; Activity [4]: 58.3%; Activity [5]: 69.9%; Activity [6]: Dose-dependent effect; Activity [7]: 56.6%; Activity [8]: 72.6%; Activity [9]: 88.6%; Activity [10]: Dose-dependent effect; Activity [11]: Dose-dependent effect; inhibition in vivo at 0.1 mg/kg/day [12]: 55.4%; inhibition in vivo at 1 mg/kg/day [13]: 79.9%; inhibition in vivo at 10 mg/kg/day [14]: 96.3%; Ratio [15]: >300; Ratio [16]: >300; Ratio [17]: >300
29 | Cc1nc(Nc2cccc(F)c2)c(C)c(C)c1O | 16.3% | 
30 | Cc1nc(Nc2ccc(Oc3ccccc3)cc2)c(C)c(C)c1O | 17.3% | 
31 | Cc1nc(Nc2cccc(OC(C)C)c2)c(C)c(C)c1O | 24.9% | 
32 | Cc1nc(N(c2ccccc2)c2ccc3ccccc3c2)c(C)c(C)c1O | 13.4% | 
33 | Cc1nc(NC2CCCC2)c(C)c(C)c1O | 73.3% | 
34 | CCCCCCNc1nc(C)c(O)c(C)c1C | 28.4% | 
35 | Cc1nc(NCc2ccc(-c3ccccc3)cc2)c(C)c(C)c1O | 1.3% | 
36 | O=C(O)c1cc(/N=N/c2ccc(S(=O)(=O)Nc3ccccn3)cc2)ccc1O [SULFASALAZINE] |  | Activity [18]: 55.6%; Activity [19]: 67.1%; inhibition in vivo at 300 mg/kg/day [20]: 58.6%
37 | Cc1nc(N2CCOCC2)c(C)c(C)c1O | 67.7% | 
38 | Cc1nc(Nc2ccc(Cl)cc2)c(C)c(C)c1O | 28.4% | 
39 | Cc1nc(N(c2ccccc2)c2ccccc2)c(C)c(C)c1O | 41.3% | 
40 | Cc1nc(NCc2ccccc2)c(C)c(C)c1O | 35.7% | 
41 | Nc1ccc(O)c(C(=O)O)c1 [MESALAMINE] | 3.8% | inhibition at 20000 µM [21]: 52.7%; IC50 [2]: 18.1 mM
42 | Cc1nc(Nc2ccc(C(C)(C)C)cc2)c(C)c(C)c1O | 27.3% | 
43 | Cc1nc(-n2cccc2)c(C)c(C)c1O | 56.1% | 
44 | Cc1nc(N(C)c2ccc(Cl)cc2)c(C)c(C)c1O | 65.2% | 
45 | Cc1nc(N(C)c2ccccc2)c(C)c(C)c1O | 58.1% | 
